# Test results as given in ChEMBL document CHEMBL3797052 (Eur J Med Chem, 2016).
# Test system: SN12C
# Test: Antiproliferative activity against human SN12C cells assessed as growth inhibition after 48 hrs by sulforhodamine B assay
# Assay type: functional
# Conditions: not given
Compound,GI50,TGI
CNC(=O)c1cc(Oc2ccc3nc(NC(=O)Nc4cc(C(F)(F)F)cc(C(F)(F)F)c4)sc3c2)ccn1,1.64 µM,3.79 µM

# Same assay, conditions: read-out: LC50 (the source's name)
row,Compound,CC50
1,CNC(=O)c1cc(Oc2ccc3nc(NC(=O)Nc4cc(C(F)(F)F)cc(C(F)(F)F)c4)sc3c2)ccn1,8.76 µM

# Test system: not listed separately
# Test: Antiproliferative activity against human RXF393 cells assessed as growth inhibition after 48 hrs by sulforhodamine B assay
# Assay type: functional
# Conditions: RXF 393, 48 h
Compound,GI50,TGI
CNC(=O)c1cc(Oc2ccc3nc(NC(=O)Nc4cc(C(F)(F)F)cc(C(F)(F)F)c4)sc3c2)ccn1,1.25 µM,2.99 µM

# Same assay, conditions: RXF 393, 48 h, read-out: LC50 (the source's name)
row,Compound,CC50
1,CNC(=O)c1cc(Oc2ccc3nc(NC(=O)Nc4cc(C(F)(F)F)cc(C(F)(F)F)c4)sc3c2)ccn1,7.16 µM

# Test system: not listed separately
# Test: Antiproliferative activity against human SKOV3 cells assessed as growth inhibition after 48 hrs by sulforhodamine B assay
# Assay type: functional
# Conditions: SK-OV-3, 48 h
Compound,GI50,TGI
CNC(=O)c1cc(Oc2ccc3nc(NC(=O)Nc4cc(C(F)(F)F)cc(C(F)(F)F)c4)sc3c2)ccn1,1.43 µM,3.18 µM

# Same assay, conditions: SK-OV-3, 48 h, read-out: LC50 (the source's name)
row,Compound,CC50
1,CNC(=O)c1cc(Oc2ccc3nc(NC(=O)Nc4cc(C(F)(F)F)cc(C(F)(F)F)c4)sc3c2)ccn1,7.09 µM

# Test system: not listed separately
# Test: Antiproliferative activity against human OVCAR8 cells assessed as growth inhibition after 48 hrs by sulforhodamine B assay
# Assay type: functional
# Conditions: OVCAR-8, 48 h
Compound,GI50,LC50,TGI
CNC(=O)c1cc(Oc2ccc3nc(NC(=O)Nc4cc(C(F)(F)F)cc(C(F)(F)F)c4)sc3c2)ccn1,1.33 µM,5.47 µM,2.69 µM

# Test system: not listed separately
# Test: Antiproliferative activity against human RPMI8226 cells assessed as cell growth at 10^-7 M after 48 hrs by sulforhodamine B assay
# Assay type: functional
# Conditions: RPMI-8226, 48 h, read-out: Activity
row,Compound,growth at 0.1 µM
1,CNC(=O)c1cc(Oc2ccc3nc(NC(=O)Nc4cc(C(F)(F)F)cc(C(F)(F)F)c4)sc3c2)ccn1,108%

# Test system: NCI-H226
# Test: Antiproliferative activity against human NCI-H226 cells assessed as cell growth at 10^-7 M after 48 hrs by sulforhodamine B assay
# Assay type: functional
# Conditions: NCI-H226, 48 h, read-out: Activity
row,Compound,growth at 0.1 µM
1,CNC(=O)c1cc(Oc2ccc3nc(NC(=O)Nc4cc(C(F)(F)F)cc(C(F)(F)F)c4)sc3c2)ccn1,87%

# Test system: SK-MEL-28
# Test: Antiproliferative activity against human SK-MEL-28 cells assessed as growth inhibition after 48 hrs by sulforhodamine B assay
# Assay type: functional
# Conditions: SK-MEL-28, 48 h
Compound,GI50,TGI
CNC(=O)c1cc(Oc2ccc3nc(NC(=O)Nc4cc(C(F)(F)F)cc(C(F)(F)F)c4)sc3c2)ccn1,1.29 µM,2.93 µM

# Same assay, conditions: SK-MEL-28, 48 h, read-out: LC50 (the source's name)
row,Compound,CC50
1,CNC(=O)c1cc(Oc2ccc3nc(NC(=O)Nc4cc(C(F)(F)F)cc(C(F)(F)F)c4)sc3c2)ccn1,6.62 µM

# Test system: MDA-MB-435
# Test: Antiproliferative activity against human MDA-MB-435 cells assessed as growth inhibition after 48 hrs by sulforhodamine B assay
# Assay type: functional
# Conditions: MDA-MB-435, 48 h
Compound,GI50,TGI
CNC(=O)c1cc(Oc2ccc3nc(NC(=O)Nc4cc(C(F)(F)F)cc(C(F)(F)F)c4)sc3c2)ccn1,1.04 µM,2.7 µM

# Same assay, conditions: MDA-MB-435, 48 h, read-out: LC50 (the source's name)
row,Compound,CC50
1,CNC(=O)c1cc(Oc2ccc3nc(NC(=O)Nc4cc(C(F)(F)F)cc(C(F)(F)F)c4)sc3c2)ccn1,6.99 µM

# Test system: SK-MEL-5
# Test: Antiproliferative activity against human SK-MEL-5 cells assessed as cell growth at 10^-7 M after 48 hrs by sulforhodamine B assay
# Assay type: functional
# Conditions: SK-MEL-5, 48 h, read-out: Activity
row,Compound,growth at 0.1 µM
1,CNC(=O)c1cc(Oc2ccc3nc(NC(=O)Nc4cc(C(F)(F)F)cc(C(F)(F)F)c4)sc3c2)ccn1,99%

# Test system: 786-0
# Test: Antiproliferative activity against human 786-0 cells assessed as cell growth at 10^-7 M after 48 hrs by sulforhodamine B assay
# Assay type: functional
# Conditions: 786-0, 48 h, read-out: Activity
row,Compound,growth at 0.1 µM
1,CNC(=O)c1cc(Oc2ccc3nc(NC(=O)Nc4cc(C(F)(F)F)cc(C(F)(F)F)c4)sc3c2)ccn1,99%

# Test system: SN12C
# Test: Antiproliferative activity against human SN12C cells assessed as cell growth at 10^-7 M after 48 hrs by sulforhodamine B assay
# Assay type: functional
# Conditions: read-out: Activity
row,Compound,growth at 0.1 µM
1,CNC(=O)c1cc(Oc2ccc3nc(NC(=O)Nc4cc(C(F)(F)F)cc(C(F)(F)F)c4)sc3c2)ccn1,104%

# Test system: not listed separately
# Test: Antiproliferative activity against human DU145 cells assessed as cell growth at 10^-7 M after 48 hrs by sulforhodamine B assay
# Assay type: functional
# Conditions: DU-145, 48 h, read-out: Activity
row,Compound,growth at 0.1 µM
1,CNC(=O)c1cc(Oc2ccc3nc(NC(=O)Nc4cc(C(F)(F)F)cc(C(F)(F)F)c4)sc3c2)ccn1,97%

# Test system: not listed separately
# Test: Antiproliferative activity against human Hs 578T cells assessed as cell growth at 10^-7 M after 48 hrs by sulforhodamine B assay
# Assay type: functional
# Conditions: read-out: Activity
row,Compound,growth at 0.1 µM
1,CNC(=O)c1cc(Oc2ccc3nc(NC(=O)Nc4cc(C(F)(F)F)cc(C(F)(F)F)c4)sc3c2)ccn1,100%

# Test system: KM12
# Test: Antiproliferative activity against human KM12 cells assessed as growth inhibition after 48 hrs by sulforhodamine B assay
# Assay type: functional
# Conditions: KM12, 48 h
Compound,GI50,LC50,TGI
CNC(=O)c1cc(Oc2ccc3nc(NC(=O)Nc4cc(C(F)(F)F)cc(C(F)(F)F)c4)sc3c2)ccn1,0.444 µM,7.96 µM,2 µM
